Data reported in PMC6429183, “Identification of Compounds That Inhibit Estrogen-Related Receptor Alpha Signaling Using High-Throughput Screening Assays” (Molecules, 2019).
Like-named read-outs stand apart in the source and are kept apart here.

Tests used:
[1] = tested on: ERR reporter HEK293 cells; assay: CellTiter-Fluor cell viability assay multiplexed with ERR reporter assay; assay type: cell-based; settings: for ERR-HEK293 Follow-Up Viability EC50: follow-up screen; for ERR-HEK293 Primary Viability EC50: primary qHTS, viability counter screen
Description: (§1) ERR or PGC/ERR reporter HEK293 cells suspended in culture medium without puromycin were dispensed at 2500 cells/5 μL/well in tissue culture–treated 1536-well white assay plates (Greiner Bio-One North America, Monroe, NC, USA) using a Thermo Scientific Multidrop Combi (ThermoFisher Scientific, Inc.). […] After the cells were incubated at 37 °C with 5% CO2 for 6 h, 23 nL of compounds or control, XTC790, was transferred into the assay plates using a Wako Pintool station (Wako Automation, San Diego, CA, USA). The assay plates were incubated at 37 °C for 18 h, followed by the addition of 5 μL ONE-Glo luciferase reagent (Promega, Madison, WI, USA) using a Flying Reagent Dispenser (Aurora Discovery, Carlsbad, CA, USA). After 30 min of incubation at room temperature, the luminescence intensity of the assay plates was quantified using a ViewLux plate reader (PerkinElmer, Shelton, CT, USA). The assays were performed three times for each compound concentration. These ERR and PGC/ERR reporter assays were multiplexed with the CellTiter-Fluor Cell Viability Assay (Promega), a fluorescence-based cell viability assay, to assess compound cytotoxicity.
The qHTS data were analyzed as described previously. […] The DMSO-only compound plates at the beginning and end of the compound plate stack were used to correct the data set by applying an in-house pattern correction algorithm. The half maximum inhibition values (IC50) for each compound and maximum response (efficacy) values were obtained by fitting the concentration-response curves of each compound to a four-parameter Hill equation [91]. […] For each reading, the activity outcome of a test compound was first categorized by the average curve rank from the triplicate runs and the reproducibility calls. The final activity outcome of each compound was based on the ERR antagonist readout activity and cell viability counter screen.

IDH3α = assay: qRT-PCR mRNA expression of ERR downstream gene IDH3α; assay type: cell-based; settings: ERR reporter cells, vs GAPDH, DMSO = 0%
Description: (§2) Total RNA was isolated from treated ERR reporter cells using an RNeasy Mini Kit (Qiagen, Germantown, MD, USA), homogenized using a QIAshredder (Qiagen), and reverse transcribed with a High-Capacity RNA-to-cDNA™ Kit (ThermoFisher Scientific, Inc.) following the manufacturers’ instructions. Expression of ERRα, COX8α, IDH3α, PPARα, COX4I1, and cytochrome c genes was normalized against GAPDH. All primers were purchased from ThermoFisher Scientific, Inc. Real-time PCR assays were performed in 384-well plates on a QuantStudio 5 (Applied Biosystems, Foster City, CA, USA) with TaqMan™ Gene Expression Master Mix (ThermoFisher Scientific, Inc.). Induction values were calculated using the equation: Fold = 2^ΔΔCt, where ΔCt represents the differences in cycle threshold numbers between each of the target genes and GAPDH, and ΔΔCt represents the relative change in these differences between control and treatment groups. Experimental data are presented as a mean of triplicate determinations ± SD. Statistical comparisons were made by t-test, while the statistical significance was set at p values of <0.05 (light blue), <0.01 (medium blue), and <0.001 (dark blue).

cytochrome c = assay: qRT-PCR mRNA expression of ERR downstream gene cytochrome c; assay type: cell-based; settings: ERR reporter cells, vs GAPDH, DMSO = 0%
Description: as §2

[2] = tested on: Nrf2/antioxidant response element (ARE); assay: Nrf2/ARE-HepG2 β-lactamase reporter agonist assay; assay type: cell-based; settings: agonist mode, heatmap outcome
Description: After the assay plates were incubated at 37 °C for 5–6 h, 23 nL of compounds dissolved in DMSO or positive controls were transferred to the assay plates via a Wako Pintool station (Wako). Except for ARE and p53, all other assays received 1 µL/well agonist (10 nM R1881 for AR; 0.5 and 5 nM β-estradiol for ERα and ERβ respectively; 300 µM CDCA for FXR; 50 nM Rosiglitazone for PPARγ; and 5 nM R5020 for PR) or assay medium using a Flying Reagent Dispenser (FRD). The assay plates were incubated for 16 h (AR, Nrf2/ARE, ERβ, FXR, p53, and PR), 17 h (PPARγ), or 18 h (ERα) at 37 °C, and 1 µL/well LiveBLAzer™ FRET-B/G CCF4-AM substrate (ThermoFisher Scientific, Inc.) detection mix was added using an FRD and the plates were incubated at room temperature for 2 h. […] Data were expressed as the ratio of 460/530 nm emission values.

[3] = target: T1, ERRα with PGC-1α (PGC/ERR pathway) (Homo sapiens, UniProt P11474); assay: PGC/ERR reporter (luciferase) qHTS assay, PGC/ERR-HEK293; settings: for EC50: mean ± SD, triplicate
T1 sequence (P11474 1-423): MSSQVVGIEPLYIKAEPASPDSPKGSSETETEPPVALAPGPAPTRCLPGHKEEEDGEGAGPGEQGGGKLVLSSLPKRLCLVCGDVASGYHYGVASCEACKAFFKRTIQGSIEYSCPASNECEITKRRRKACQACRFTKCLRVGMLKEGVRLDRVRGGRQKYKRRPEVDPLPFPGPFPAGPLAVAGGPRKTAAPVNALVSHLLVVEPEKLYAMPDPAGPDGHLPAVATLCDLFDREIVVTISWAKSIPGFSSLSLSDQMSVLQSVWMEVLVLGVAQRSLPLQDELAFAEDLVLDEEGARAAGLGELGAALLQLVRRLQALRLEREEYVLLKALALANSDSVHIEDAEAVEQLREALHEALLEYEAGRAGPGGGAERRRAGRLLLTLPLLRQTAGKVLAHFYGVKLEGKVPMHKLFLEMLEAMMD
Description: (§3) The ERR reporter HEK293 cells were cultured in high glucose DMEM medium (ThermoFisher Scientific, Inc., Waltham, MA, USA) supplemented with 10% fetal bovine serum (FBS; ThermoFisher Scientific, Inc.), 4 mM of L-glutamine (ThermoFisher Scientific, Inc.), 1 mM of sodium pyruvate (ThermoFisher Scientific, Inc.), 100 U/mL of penicillin and 100 mg/mL of streptomycin (ThermoFisher Scientific, Inc.). PGC/ERR reporter HEK293 cells were cultured in the same medium as the ERR reporter HEK293 cells with an additional 1 μg/mL puromycin (ThermoFisher Scientific, Inc.) as the selection marker for PGC-1α expression.
(§4) The DMSO-only compound plates at the beginning and end of the compound plate stack were used to correct the data set by applying an in-house pattern correction algorithm [90]. The half maximum inhibition values (IC50) for each compound and maximum response (efficacy) values were obtained by fitting the concentration-response curves of each compound to a four-parameter Hill equation [91]. […] For each reading, the activity outcome of a test compound was first categorized by the average curve rank from the triplicate runs and the reproducibility calls. The final activity outcome of each compound was based on the ERR antagonist readout activity and cell viability counter screen.

[4] = target: T2, estrogen-related receptor alpha (ERRα) (Homo sapiens, UniProt P11474); assay: ERR reporter (luciferase) antagonist qHTS assay, ERR-HEK293; settings: for EC50: mean ± SD, triplicate; for ERR-HEK293 Primary Efficacy: primary qHTS, DMSO = 0%
T2 sequence (P11474 1-423): T1 sequence (P11474 1-423)
Description: as §3, §4

COX4I1 = assay: qRT-PCR mRNA expression of ERR downstream gene COX4I1; assay type: cell-based; settings: 5 µM; ERR reporter cells; vs GAPDH, DMSO = 0%
Description: as §2, with “Experimental data are presented as a mean of triplicate determinations ± SD. Statistical comparisons were made by t-test, while the statistical significance was set at p values of <0.05 (light blue), <0.01 (medium blue), and <0.001 (dark blue).” left out

[5] = tested on: PGC/ERR reporter HEK293 cells; assay: CellTiter-Fluor cell viability assay multiplexed with PGC/ERR reporter assay; assay type: cell-based
Description: as §1
The qHTS data were analyzed as described previously. Each titration point was normalized relative to the positive control compound (XCT790 = −100%) and DMSO-only wells (0%) according to the following equation: % Activity = [(Vcompound − VDMSO)/(VDMSO − Vpos)] × 100, where Vcompound denotes the compound well values, Vpos denotes the median value of the positive control wells, and VDMSO denotes the median values of the DMSO-only wells. The DMSO-only compound plates at the beginning and end of the compound plate stack were used to correct the data set by applying an in-house pattern correction algorithm. The half maximum inhibition values (IC50) for each compound and maximum response (efficacy) values were obtained by fitting the concentration-response curves of each compound to a four-parameter Hill equation [91]. Compounds were designated as Class 1–4 according to the type of concentration–response curve observed. For each reading, the activity outcome of a test compound was first categorized by the average curve rank from the triplicate runs and the reproducibility calls. The final activity outcome of each compound was based on the ERR antagonist readout activity and cell viability counter screen.

COX8α = assay: qRT-PCR mRNA expression of ERR downstream gene COX8α; assay type: cell-based; settings: 2 µM; ERR reporter cells; vs GAPDH, DMSO = 0%
Description: as §2

[6] = target: T2, estrogen-related receptor alpha (ERRα)
Description: as §3, §4

[7] = target: T1, ERRα with PGC-1α (PGC/ERR pathway)
Description: as §3, §4

[8] = PGC/ERR-HEK293 Follow-Up EC50, follow-up screen
[9] = PGC/ERR-HEK293 Primary EC50, primary qHTS, 18 h
[10] = ERR-HEK293 Follow-Up EC50, follow-up (confirmation) screen
[11] = ERR-HEK293 Primary EC50, primary qHTS, 18 h, 15 concentrations

## C[C@@H]1CC[C@H]2[C@@H](C)C(=O)O[C@@H]3O[C@@]4(C)CC[C@@H]1[C@]32OO4 [Artemisinin]
[1]
  ERR-HEK293 Follow-Up Viability EC50: Inactive
  ERR-HEK293 Primary Viability EC50: Inactive
IDH3α; 7 µM
  Percent inhibition of mRNA gene expression, IDH3α: 30.2%
Cytochrome c; 7 µM
  Percent inhibition of mRNA gene expression, Cytochrome C: 36.2%
[2]
  activity in the Nrf2-ARE assay: active agonists
[3]; [8]
  EC50: 14.5 ± 10.8 µM
[3]; [9]
  EC50: 1.78 ± 0.401 µM
[3]; follow-up screen, negative = antagonism, positive = agonism
  PGC/ERR-HEK293 Follow-Up Efficacy: −72.8 ± 22.0%
[3]; in words
  activity in the ERR/PGC assay: antagonism
[3]; primary qHTS, negative = antagonism, positive = agonism
  PGC/ERR-HEK293 Primary Efficacy: −57.6 ± 2.03%
[4]; [10]
  EC50: 2.44 ± 1.22 µM
[4]; [11]
  EC50: 1.01 ± 0.297 µM
[4]; follow-up screen, relative to XCT790 = −100%
  ERR-HEK293 Follow-Up Efficacy: −83.7 ± 14.6%
[4]; relative to XCT790 = −100%
  ERR-HEK293 Primary Efficacy: −71.6 ± 5.57%
[4]; relative to XCT790 = −100%, listed as artemisinin
  ERR-HEK293 Primary Efficacy: −71.6%

## Cc1nc2ccccc2n1Cc1ccc(Cl)cc1 [Chlormidazole]
IDH3α; 5 µM
  Percent inhibition of mRNA gene expression, IDH3α: 23.8 ± 3.17%
COX4I1
  Percent inhibition of mRNA gene expression, COX4I1: 4.71 ± 5.09%
Cytochrome c; 5 µM
  Percent inhibition of mRNA gene expression, Cytochrome C: 35.8 ± 3.92%

## CO/N=C(/C(=O)OC)c1ccccc1COc1ccccc1C [Kresoxim-methyl]
[1]
  ERR-HEK293 Follow-Up Viability EC50: Inactive
  ERR-HEK293 Primary Viability EC50: Inactive
[5]; follow-up screen
  PGC/ERR-HEK293 Follow-Up Viability EC50: Inactive
[5]; primary qHTS
  PGC/ERR-HEK293 Primary Viability EC50: Inactive
COX8α
  Percent inhibition of mRNA gene expression, COX8α: 9.70 ± 12.8%
IDH3α; 2 µM
  Percent inhibition of mRNA gene expression, IDH3α: 8.26 ± 19.3%
Cytochrome c; 2 µM
  Percent inhibition of mRNA gene expression, Cytochrome C: 9.31 ± 0.48%
[6]
  ERR-HEK293 Follow-Up Efficacy: −102 ± 1.40%
  ERR-HEK293 Primary Efficacy: −86.6 ± 21.1%
[7]
  PGC/ERR-HEK293 Follow-Up Efficacy: −61.1 ± 10.0%
  PGC/ERR-HEK293 Primary Efficacy: −56.7 ± 8.51%
[3]; [8]
  EC50: 17.7 ± 6.04 µM
[3]; [9]
  EC50: 7.66 ± 6.87 µM
[4]; [10]
  EC50: 8.31 ± 3.29 µM
[4]; [11]
  EC50: 5.65 ± 6.96 µM
